In brackets after ≈: the same amount, converted by molar mass. Like-named read-outs stand apart in the source and are kept apart here.
Experiments:
[1] = tested on: adults of cowpea aphid (Aphis craccivora); experiment: Leaf dipping insecticidal bioassay, adults of cowpea aphid; assay type: in vivo; details: 24 h; for LC50: Aphis craccivora, foliar; for Toxic ratio: Acetamiprid's LC50 / the compound's LC50
Method: (§1) The original batches of cowpea aphid insects were collected from pest's laboratory, Plant Protection Research Institute, Agricultural Research Center. The target compounds were screened for their insecticidal activity towards nymphs and adults of cowpea aphid.
(§2) The insecticidal activities of compounds 4 and 5 were measured by using leaf dipping method under the same reported laboratory conditions. Five concentrations of compound 4, 5 and 0.1% Tween-80 as a surfactant were used. Nearly the same size 30 nymphs and 30 adults of cowpea aphid insects were used for dipping for 10 second in every concentration of each compound (repeat three times). Insects which tested were allowed to stand to dry at room temperature for about half an hour. In the control experiment, the insects were dunked in distilled water and 0.1% tween-80 only. These applications were carried out at 5% relative humidity, and at a temperature of 25° C. After the used insect had dried, they were transferred to glass jars containing water. With a new binocular microscope, the aphid mortality was taken after 24 hrs of treatment. Any aphid that was unable to move was considered dead. The LC50 values used to evaluate the insecticidal activity were estimated by probit analysis.

[2] = tested on: nymphs of cowpea aphid (Aphis craccivora); experiment: Leaf dipping insecticidal bioassay, nymphs of cowpea aphid; assay type: in vivo; details: 24 h; for LC50: Aphis craccivora, foliar; for Toxic ratio: Acetamiprid's LC50 / the compound's LC50
Method: as §1, §2

[3] = adults, after 24 h of treatment, leaf dipping, probit analysis, read-out: LC50
[4] = nymphs, after 24 h of treatment, leaf dipping, probit analysis, read-out: LC50

| SMILES | LC50 [1] [µg/mL] | Toxic ratio ([1]; adults) | LC50 [2] [µg/mL] | Toxic ratio ([2]; nymphs) | LC50 [1, 3] [µg/mL] | LC50 [2, 4] [µg/mL] |
| --- | --- | --- | --- | --- | --- | --- |
| C/C(=N\C#N)N(C)Cc1ccc(Cl)nc1 [Acetamiprid, acetamiprid, reference compound] | 0.267 (≈ 1.2 µM) | 1 | 0.045 (≈ 0.202 µM) | 1 |  |  |
| CCOc1nc(-c2ccccc2)cc(-c2cccnc2)c1C#N [Compound 4, 2′-Ethoxy-6′-phenyl[3,4′-bipyridine]-3′-carbonitrile] |  | 0.205 |  | 0.576 | ~1.3 (≈ 4.32 µM) | ~0.0781 (≈ 0.259 µM) |
| COc1nc(-c2ccccc2)cc(-c2cccnc2)c1C#N [Compound 5, 2′-Methoxy-6′-phenyl[3,4′-bipyridine]-3′-carbonitrile] |  | 0.190 |  | 0.0534 | 1.4 (≈ 4.87 µM) | ~0.0842 (≈ 0.293 µM) |
